Experiment [1] addresses c-Src (Homo sapiens (Human), UniProt P12931). The experiment is described as follows: c-Src enzyme inhibition (FRET, Z-LYTE). The class given is biochemical. A digest of the protocol: (§1)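 Z-LYTE FRET peptide assay with enzyme preincubated with compound for 2 h at RT, then 1 h kinase reaction and 1 h protease development. ATP solutions were 800 μM for c-Src and 60 μM for Syk. Inhibition was taken from the coumarin/fluorescein emission ratio, and IC50 from concentration-response curves.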

In experiment [2] the target is Syk (Homo sapiens (Human), UniProt P43405). The experiment in a line: Syk enzyme inhibition (FRET, Z-LYTE). The class given is biochemical. The method, boiled down: as §1
Experiment [3] addresses GSK3α (Homo sapiens (Human), UniProt P49840). The experiment is described as follows: GSK 3α enzyme inhibition (FRET, Z-LYTE; Method 2). The class given is biochemical. A digest of the protocol:
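GSK3-α protein preincubated with compound for 105 min, then Z-LYTE FRET peptide and ATP added for 1 h before protease development for 1 h. Phosphorylation taken from coumarin/fluorescein emission ratio; percent inhibition against uninhibited control and IC50 calculated from concentration-response curves.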

Experiment [4] relates to PBMCs. The experiment in a line: LPS-induced TNFα/IL-8 release in PBMC cells. The class given is cell-based. Particulars: Homo sapiens, LPS-stimulated PBMCs, IL-8, read-out: IC50 Values for Inhibition of Cytokine Release, PBMCs IL-8. A digest of the protocol:
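Human PBMCs from healthy donors, isolated by density gradient, were pretreated with compound for 2 h and then stimulated with 1 ng/mL LPS (E. coli 0111:B4) for 24 h at 37° C, 5% CO2. Supernatant IL-8 and TNFα were measured by sandwich ELISA, and IC50 was taken from the dose-response curve.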

The subject of experiment [5] is HT29 cells. The experiment in a line: IL-1β-induced IL-8 release in HT29 cells. Type of experiment: cell-based. The following applies: Homo sapiens, HT-29, IL-1β-stimulated HT29 cells, read-out: IC50 Values for Inhibition of Cytokine Release, HT29 cells IL-8. On the procedure: HT29 cells, a human colon adenocarcinorna cell line, are plated in a 96 well plate (24 hrs) and pre-treated with compounds at the desired concentration for 2 hours before addition of 5 ng/mL of IL-1β (Abcam) for 24 hours. Supernatants are harvested for IL-8 quantification by Sandwich ELISA (Duo-set, R&D System). The IC50 is determined from the dose response curve.

Experiment [6] has as its system PBMCs. The experiment is described as follows: IL-2 and IFN gamma release in CD3/CD28 stimulated PBMC cells. The class given is cell-based. The following applies: Homo sapiens. On the procedure:
PBMCs from healthy subjects are separated from whole blood using a density gradient (Lymphoprep, Axis-Shield Healthcare). Cells are added to a 96 well plate pre-coated with a mixture of CD3/[…] monoclonal antibodies (0.3 μg/mL eBioscience and 3 μg/mL BD Pharmingen respectively). Compound at the desired concentration is then added to the wells and the plate left for 3 days under normal tissue culture conditions. Supernatants are harvested and IL-2 and IFN gamma release determined by Sandwich ELISA (Duo-set, R&D System). The IC50 is determined from the dose response curve.

Experiment [7] concerns the target p38 MAPKα (Homo sapiens (Human), UniProt Q16539). The experiment in a line: p38 MAPKα enzyme inhibition (FRET, Z-LYTE; Method 2). The class given is biochemical. A digest of the protocol:
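p38 MAPKα (2.5 μL of 200 ng/mL stock) preincubated 2 h at RT with compound, then kinase reaction 1 h at RT with readout via MAPKAP-K2 activation using a Z-LYTE FRET peptide. Protease development 1 h; coumarin/fluorescein emission ratio gives phosphorylation. % inhibition versus uninhibited control; IC50 from concentration-response curve.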

The test system of experiment [8] is d-U937 cells. The experiment is described as follows: LPS-induced TNFα/IL-8 release in d-U937 cells. The class given is cell-based. The following applies: Homo sapiens, dU937, LPS-stimulated d-U937 cells. As to the method: U937 cells, a human monocytic cell line, are differentiated to macrophage-type cells by incubation with phorbol myristate acetate (PMA; 100 ng/mL) for 48 to 72 hr. Cells are pre-incubated with final concentrations of test compound for 2 hr and are then stimulated with 0.1 μg/mL of LPS (from E. Coli: O111:B4, Sigma) for 4 hr. The supernatant is collected for determination of TNFα and IL-8 concentrations by sandwich ELISA (Duo-set, R&D systems). The inhibition of TNFα production is calculated as a percentage of that achieved by 10 μg/mL of BIRB796 at each concentration of test compound by comparison against vehicle control. The relative 50% effective concentration (REC50) is determined from the resultant concentration-response curve. The inhibition of IL-8 production is calculated at each concentration of test compound by comparison with vehicle control. The 50% inhibitory concentration (IC50) is determined from the resultant concentration-response curve.

The subject of experiment [9] is TNBS-induced colitis in mice. The experiment is described as follows: TNBS-induced colitis in mice. Type of experiment: in vivo. On the procedure:
Non-fasted, 10-12 week old, male BDF1 mice are dosed by oral gavage twice daily with either vehicle (5 mL/kg), reference item (Budesonide 2.5 mg/kg) or test compound (1 or 5 mg/kg) one day before (Day −1) stimulation of the inflammatory response by treatment with 2,4,6-trinitrobenzenesuiphonic acid (TNBS) (15 mg/mL in 50% ethanol/50% saline). On Day 0 of the study TNBS (200 μL) is administered intra-colonically via a plastic catheter followed by BID dosing of the vehicle, reference or test compound for 2 or 4 days. During the study animals are weighed every day and stool observations are made and recorded as a score, based on stool consistency. At the time of sacrifice on Day 2 (or Day 4) the large intestine is removed and the length and weight recorded. Sections of the colon are taken for either MPO analysis to determine neutrophil infiltration or for histopathology involving scoring to determine disease severity.

Where [10] appears, read: IL-2, read-out: IC50 Values for Inhibition of Cytokine Release, PBMCs IL-2.
[11] abbreviates: IL-8, read-out: IC50 Values for Inhibition of Cytokine Release, dU937 cells IL-8.
[12] abbreviates: TNFα (REC50 relative to BIRB796 per method), read-out: IC50 Values for Inhibition of Cytokine Release, dU937 cells TNFα.
Where [13] appears, read: IFNγ, read-out: IC50 Values for Inhibition of Cytokine Release, PBMCs IFNγ.

The values below come from patent US9796742B2, “Kinase inhibitors” (Respivert Limited, priority 2012, dated 2017).

A word on the IC50: it is the midpoint of a concentration-inhibition curve.

SMILES strings stand for the structures. Where two headings read alike, the source gives them in different places.

Sequence of p38 MAPKα (Q16539 whole entry): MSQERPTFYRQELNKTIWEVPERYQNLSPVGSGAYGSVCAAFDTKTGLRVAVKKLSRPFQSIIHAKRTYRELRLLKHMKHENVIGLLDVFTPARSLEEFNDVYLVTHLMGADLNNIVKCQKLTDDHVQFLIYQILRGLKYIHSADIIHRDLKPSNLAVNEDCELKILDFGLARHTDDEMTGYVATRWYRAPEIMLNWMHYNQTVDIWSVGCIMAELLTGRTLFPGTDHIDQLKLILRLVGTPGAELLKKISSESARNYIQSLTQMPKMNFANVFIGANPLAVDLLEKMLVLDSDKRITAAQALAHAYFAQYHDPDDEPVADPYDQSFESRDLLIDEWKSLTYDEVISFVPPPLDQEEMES
Sequence of c-Src (P12931 whole entry, looked up): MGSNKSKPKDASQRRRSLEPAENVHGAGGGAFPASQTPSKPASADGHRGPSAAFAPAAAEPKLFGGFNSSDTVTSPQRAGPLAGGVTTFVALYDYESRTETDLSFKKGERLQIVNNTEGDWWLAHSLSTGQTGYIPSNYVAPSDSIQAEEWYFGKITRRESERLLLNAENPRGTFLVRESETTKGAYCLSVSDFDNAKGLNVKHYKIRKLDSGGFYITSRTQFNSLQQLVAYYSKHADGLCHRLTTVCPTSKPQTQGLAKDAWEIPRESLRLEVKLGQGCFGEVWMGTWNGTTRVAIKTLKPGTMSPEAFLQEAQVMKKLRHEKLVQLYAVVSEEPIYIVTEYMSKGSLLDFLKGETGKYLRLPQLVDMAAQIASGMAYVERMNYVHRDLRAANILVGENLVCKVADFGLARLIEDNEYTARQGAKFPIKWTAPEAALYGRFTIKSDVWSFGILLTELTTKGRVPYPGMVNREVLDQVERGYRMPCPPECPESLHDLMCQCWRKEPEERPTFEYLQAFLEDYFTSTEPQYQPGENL
Sequence of GSK3α (P49840 whole entry): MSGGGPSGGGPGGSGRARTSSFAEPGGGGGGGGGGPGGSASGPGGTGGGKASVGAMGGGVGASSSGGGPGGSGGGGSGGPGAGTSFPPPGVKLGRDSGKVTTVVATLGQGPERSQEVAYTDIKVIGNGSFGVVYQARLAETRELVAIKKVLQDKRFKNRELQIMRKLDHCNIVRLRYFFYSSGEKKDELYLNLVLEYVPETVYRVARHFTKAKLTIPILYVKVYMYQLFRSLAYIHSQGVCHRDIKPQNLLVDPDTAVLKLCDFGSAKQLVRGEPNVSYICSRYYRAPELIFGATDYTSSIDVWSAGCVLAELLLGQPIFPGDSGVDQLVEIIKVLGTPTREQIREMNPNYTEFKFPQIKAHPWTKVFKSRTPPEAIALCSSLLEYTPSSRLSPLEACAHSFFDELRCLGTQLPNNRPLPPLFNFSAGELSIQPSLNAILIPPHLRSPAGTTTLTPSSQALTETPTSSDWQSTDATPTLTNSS

Turning to `CC(C)(C)c1cc(NC(=O)Nc2ccc(Oc3ccnc(Nc4ccccc4)n3)c3ccccc23)n(-c2cccc(CP(C)(C)=O)c2)n1` [Example 23, 1-(3-(tert-Butyl)-1-(3-((dimethylphosphoryl)methyl)phenyl)-1H-pyrazol-5-yl)-3-(4-((2-(phenylamino)pyrimidin-4-yl)oxy)naphthalen-1-yl)urea], the 50% inhibitory concentration (IC50) in experiment [1] was 40 nM; in experiment [2], 97 nM; in experiment [3], 1640 nM; in [4], 7.5 nM; in experiment [5] it was 13.5 nM; in [6] (setting [10]), 42.7 nM. Moreover, the IC50 in experiment [7] came to 265 nM; in experiment [8] (setting [11]), 2.2 nM; in [8] (setting [12]), 1.4 nM.
Take `Cc1cc(Nc2nccc(Oc3ccc(NC(=O)Nc4cc(C(C)(C)C)nn4-c4cccc(CP(C)(C)=O)c4)c4ccccc34)n2)cc2cn[nH]c12` [Example 32, 1-(3-(tert-Butyl)-1-(3-((dimethylphosphoryl)methyl)phenyl)-1H-pyrazol-5-yl)-3-(4-((2-((7-methyl-1H-indazol-5-yl)amino)pyrimidin-4-yl)oxy)naphthalen-1-yl)urea]: the “TNBS Ulcer grade” value in experiment [9] (5 mg/kg oral, conducted over 2 days, vehicle 3.6 ± 0.3 (exp. 1), 4.4 ± 0.2 (exp. 2)) turned out to be 3.3 ± 0.4. Further, the “TNBS LP inflammation” value in experiment [9] (5 mg/kg oral, conducted over 2 days, vehicle 3.9 ± 0.3 (exp. 1), 4.5 ± 0.2 (exp. 2)) worked out at 2.7 ± 0.4. Also, the “activity in in vivo model of colonic inflammation (histopathology analysis)” value in experiment [9] (conducted over 2 days) is given as “significant activity”. The “inflammatory cell infiltrate in the reticular and laminar propria zone” value in [9] (dosed orally at 5 mg/kg) is reported as “marked reduction”. Besides, the “ulcer grade and epithelial repair compared to the vehicle control” value in experiment [9] (dosed orally at 5 mg/kg) is reported as “marked improvements”. In addition, the IC50 in experiment [1] turned out to be 5 nM; in experiment [2], 5 nM; in experiment [3] it was 1320 nM; in experiment [4] it was 1.3 nM; in experiment [5], 1.9 nM; in [6] (setting [13]), 2.3 nM. For the same compound, the IC50 in experiment [6] (setting [10]) is 4.2 nM; in [7], 60 nM.
For `COc1cc(Nc2nccc(Oc3ccc(NC(=O)Nc4cc(C(C)C)nn4-c4cccc(CP(C)(C)=O)c4)c4ccccc34)n2)cc(C(=O)NCCN2CCOCC2)c1` [Example 38, 3-((4-((4-(3-(1-(3-((Dimethylphosphoryl)methyl)phenyl)-3-isopropyl-1H-pyrazol-5-yl)-ureido)naphthalen-1-yl)oxy)pyrimidin-2-yl)amino)-5-methoxy-N-(2-morpholinoethyl)-benzamide], the IC50 stood at 2 nM in [1]; 3 nM in experiment [2]; 1250 nM in [3]; 3.8 nM in experiment [4]; 27 nM in [5]; 9.2 nM in [6] (setting [10]). Also, the concentration for half-maximal inhibition (IC50) is 10 nM in [7], 2.9 nM in experiment [8] (setting [11]) and 1.6 nM in experiment [8] (setting [12]).
Turning to `COCCOCCOCCOc1cc(Nc2nccc(Oc3ccc(NC(=O)Nc4cc(C(C)C)nn4-c4cccc(CP(C)(C)=O)c4)c4ccccc34)n2)cc(OC)c1` [Example 45, 1-(1-(3-((Dimethylphosphoryl)methyl)phenyl)-3-isopropyl-1H-pyrazol-5-yl)-3-(4-((2-((3-methoxy-5-(2-(2-(2-methoxyethoxy)ethoxy)ethoxy)phenyl)amino)pyrimidin-4-yl)oxy)naphthalen-1-yl)urea], the IC50 turned out to be 1130 nM in [3]; 3.3 nM in experiment [4]; 6.5 nM in experiment [5]; 19.3 nM in experiment [6] (setting [10]); 21 nM in [7]; 3.9 nM in [8] (setting [12]).
Take `CC(C)(C)c1cc(NC(=O)Nc2ccc(Oc3ccnc(Nc4cc(OC(F)(F)F)cc(C(=O)NCCN5CCOCC5)c4)n3)c3ccccc23)n(-c2cccc(CP(C)(C)=O)c2)n1` [Example 59, 3-((4-((4-(3-(3-(tert-Butyl)-1-(3-((dimethylphosphoryl)methyl)phenyl)-1H-pyrazol-5-yl)-ureido)naphthalen-1-yl)oxy)pyrimidin-2-yl)amino)-N-(2-morpholinoethyl)-5-(trifluoromethoxy)benzamide]: the IC50 in [1] came out at 7 nM; in experiment [2] it was 18 nM; in experiment [3] it was 1240 nM; in experiment [4], 0.8 nM; in experiment [5], 1.9 nM; in experiment [6] (setting [13]), 2.5 nM. The IC50 in [6] (setting [10]) was determined as 75.1 nM; in experiment [7], 81 nM; in [8] (setting [11]), 0.9 nM.
